# Publication PMC7191645 (Molecular Metabolism, 2020)
# pEC50: −log10 of the molar value.
# Biological target: β3-adrenoceptor (β3-AR) (Mus musculus, UniProt P25962)
# Assay: Epac1-camps FRET cAMP concentration-response in mature murine brown adipocytes
# Assay type: cell-based
# β3-adrenoceptor (β3-AR), sequence (P25962 whole entry): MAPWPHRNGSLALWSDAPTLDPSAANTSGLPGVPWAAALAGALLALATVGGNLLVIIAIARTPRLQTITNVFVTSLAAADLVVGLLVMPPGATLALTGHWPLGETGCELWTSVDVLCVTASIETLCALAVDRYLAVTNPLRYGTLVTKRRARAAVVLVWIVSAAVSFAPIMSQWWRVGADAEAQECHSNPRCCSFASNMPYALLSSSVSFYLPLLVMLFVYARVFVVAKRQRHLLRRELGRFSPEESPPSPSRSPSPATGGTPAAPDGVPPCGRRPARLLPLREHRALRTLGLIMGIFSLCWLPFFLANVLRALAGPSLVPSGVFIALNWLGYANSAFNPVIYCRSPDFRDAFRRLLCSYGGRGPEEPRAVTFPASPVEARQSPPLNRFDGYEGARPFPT
smiles,measurement,value
"C[C@H](Cc1ccc2c(c1)OC(C(=O)O)(C(=O)O)O2)NC[C@H](O)c1cccc(Cl)c1 [CL, CL 316,243]",pEC50,5.11
